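Step 1: Grow cells in 96-well plates. Step 2: Expose to compound for 48 hours at 5 concentrations. Step 3: Interpolate endpoints linearly; if unreached, use highest concentration. GI50 marks 50% less growth. TGI: total growth inhibition.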

Common to all, as to assay: NCI-60 cell line screen, 48 h
Assay [1] deals with SN12C renal.
In assay [2] the test system is UACC-62 melanoma.
The test system of assay [3] is SNB-75 CNS.
Assay [4] deals with 786-0 renal.
Assay [5] has as its system HOP-92 NSCLC.
In assay [6] the test system is OVCAR-5 ovarian.
Assay [7] relates to TK-10 renal.
For assay [8], the system named is OVCAR-4 ovarian.
Assay [9] concerns MALME-3M melanoma.
Assay [10] has as its system RPMI-8226 leukemia.

As for `CN1CCN(c2nc(NCCCCNc3ccnc4cc(Cl)ccc34)c3ccccc3n2)CC1`, the GI50 in assay [1] is 4.73 µM; in assay [2] it was 1.96 µM; in [3], 2.16 µM; in assay [4], 1.65 µM; in assay [5] it was 1.66 µM; in assay [6] it was 2.98 µM. The GI50 was 1.85 µM in assay [7], 2.14 µM in [8], 1.93 µM in assay [9] and 1.8 µM in assay [10]. The TGI was determined as 20 µM in assay [1]; 3.9 µM in assay [2]; 10 µM in [3]; 3.26 µM in assay [4]; 4.12 µM in assay [5]; 15.8 µM in [6]. Also, the TGI was determined as 4.69 µM in assay [7], 6.99 µM in assay [8], 3.61 µM in assay [9] and 5.43 µM in assay [10].

On to `CS(=O)(=O)c1ccc(-c2cnc(N)c(C(=O)Nc3ccccc3)n2)cc1`, for which the GI50 was 6.81 µM in [1]; above 51.9 µM in assay [2]; 7.22 µM in assay [3]; 3.71 µM in [4]; 24.3 µM in [5]; above 100 µM in assay [6]. Further, the GI50 in assay [7] was 16.9 µM; in assay [8], 9.86 µM; in assay [9], above 100 µM; in assay [10] it was above 100 µM. For the same compound, the TGI in assay [1], in assay [2], in assay [3], in assay [4], in [5] and in assay [6] was above 100 µM in each case. Moreover, the TGI in assay [7], in assay [8], in [9] and in assay [10] was above 100 µM throughout.

In the case of `NC(=O)c1cc([N+](=O)[O-])c(Cl)c([N+](=O)[O-])c1`, the GI50 in assay [1] is 1.8 µM; in assay [2], 2.43 µM; in [3] it was 4.63 µM; in assay [4], 1.96 µM; in assay [5], 1.96 µM; in [6], 5.53 µM. The GI50 was 1.91 µM in [7], 1.91 µM in assay [8], 2.27 µM in assay [9] and 2.32 µM in assay [10]. For the same compound, the TGI is 3.57 µM in assay [1]; 7.13 µM in assay [2]; 17.8 µM in [3]; 3.56 µM in assay [4]; 4.18 µM in [5]; 17.6 µM in assay [6]. In addition, the TGI in assay [7] turned out to be 3.36 µM; in assay [8], 3.9 µM; in assay [9], 4.54 µM; in [10], 5.7 µM.

As for `CN(C)c1ccc(-c2cc(-c3ccc(Nc4nc(Nc5ccccc5)nc(Nc5ccc(Cl)cc5)n4)cc3)nc(N)n2)cc1`, the GI50 in assay [1] is 7.52 µM; in assay [2], 6.26 µM; in assay [3], 3.27 µM; in assay [4], 6.32 µM; in assay [5] it was 1.48 µM; in assay [6], 16.1 µM. The GI50 was 5.68 µM in assay [7], 5.01 µM in assay [8], 4.07 µM in assay [9] and 3.32 µM in [10]. In addition, the TGI in assay [1] worked out at 42.2 µM; in [2], 40 µM; in [3], 37.7 µM; in assay [4] it was 46 µM; in [5] it was 13.2 µM; in [6], 91.5 µM. Further, the TGI was 38.7 µM in assay [7], above 100 µM in [8], 49.2 µM in assay [9] and 20 µM in assay [10].

`O=C(/C=C/c1ccc(Cl)c(Cl)c1)c1ccc(F)cc1`: the TGI in [1] turned out to be 52.2 µM; in [2], 28.8 µM; in assay [3] it was 58.3 µM; in assay [4], 28.9 µM; in assay [5], 72.1 µM; in assay [6], 55.2 µM. Moreover, the TGI in assay [7] amounted to 94.7 µM; in assay [8] it was 51.1 µM; in assay [9] it was 83.4 µM; in assay [10], 12.6 µM.

Regarding `O=C1/C(=C/c2ccc3c(c2)OCO3)CCC1CN1CCOCC1` (stereo not given), the TGI in assay [1] worked out at 12 µM; in assay [2], 20.5 µM; in assay [3], 28.7 µM; in [4], 11.3 µM; in [5], 29.3 µM; in assay [6], 31.8 µM. In addition, the TGI in assay [7] is 21.6 µM; in assay [8], 18.8 µM; in assay [9] it was 22.6 µM; in assay [10], 1.73 µM.

Take `O=C(CCCCCCSc1nc(-c2ccccc2)cc(-c2ccccc2)n1)NO`: the GI50 in assay [1] was 2.9 µM; in assay [2] it was 1.35 µM; in assay [3] it was 1.7 µM; in assay [4], 1.91 µM; in assay [5], 1.75 µM; in assay [6], 1.84 µM. Further, the GI50 in assay [7] was 2.51 µM; in [8], 3.05 µM; in assay [9], 1.02 µM; in assay [10], 0.405 µM. Besides, the TGI is 10.5 µM in [1]; 3.85 µM in assay [2]; 14 µM in assay [3]; 4.48 µM in assay [4]; 4.95 µM in [5]; 7.92 µM in assay [6]. For the same compound, the TGI amounted to 13.5 µM in assay [7], 16.7 µM in [8], 8.31 µM in [9] and 3.1 µM in [10].

With `NC1=C(Br)C(=O)c2ncccc2C1=O`, the TGI turned out to be 2.1 µM in assay [1]; 0.713 µM in [2]; 0.664 µM in assay [3]; 2.99 µM in assay [4]; 3.06 µM in [5]; 3.49 µM in [6]. Moreover, the TGI in assay [7] was found to be 5.81 µM; in assay [8], 2.49 µM; in assay [9] it was 1.4 µM; in assay [10], 3.81 µM.

Take `COCC1N=C(c2cc(OC)c(OC)c(OC)c2-c2cc3c(cc2C2OCCCO2)OCO3)O[C@H]1c1ccccc1` (stereo not given in full): the TGI in assay [1], in [2], in assay [3], in assay [4], in assay [5] and in assay [6] was above 100 µM throughout. Further, the TGI in [7], in assay [8], in [9] and in [10] was above 100 µM throughout.
